This passage reports T/C results from PubChem BioAssay AID256 (DTP/NCI, 2004).

The subject of the assay is CD2F1 mice, L1210 leukemia ip, survival T/C. Kind of assay: NCI In Vivo Anticancer Drug Screen. Data for tumor model L1210 Leukemia (intraperitoneal) in CD2F1 (CDF1) mice. To be noted: higher = longer survival. In outline:
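Implant tumor; dose compound or vehicle; measure endpoint in both groups; report treated divided by control.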

The mark [1] stands for this setting: endpoint: mean survival time, dose: 100.0 mg/kg/injection, schedule: Q01DX009 (ip), vehicle: saline with Tween-80.
Setting [2] is: endpoint: mean survival time, dose: 200.0 mg/kg/injection, schedule: Q01DX009 (ip), vehicle: saline with Tween-80.
[3] abbreviates: endpoint: mean survival time, dose: 400.0 mg/kg/injection, schedule: Q01DX009 (ip), vehicle: saline with Tween-80.
Setting [4] is: endpoint: mean survival time, dose: 25.0 mg/kg/injection, schedule: Q01DX009 (ip), vehicle: saline.
The mark [5] stands for this setting: endpoint: mean survival time, dose: 50.0 mg/kg/injection, schedule: Q01DX009 (ip), vehicle: saline.
[6] abbreviates: endpoint: mean survival time, dose: 100.0 mg/kg/injection, schedule: Q01DX009 (ip), vehicle: saline.
The mark [7] stands for this setting: endpoint: mean survival time, dose: 100.0 mg/kg/injection, schedule: Q04DX003 (ip), vehicle: saline with Tween-80.
[8] abbreviates: endpoint: mean survival time, dose: 200.0 mg/kg/injection, schedule: Q01DX009 (ip), vehicle: saline.
[9] abbreviates: endpoint: mean survival time, dose: 200.0 mg/kg/injection, schedule: Q04DX003 (ip), vehicle: saline with Tween-80.
Where [10] appears, read: endpoint: mean survival time, dose: 400.0 mg/kg/injection, schedule: Q04DX003 (ip), vehicle: saline with Tween-80.

Structures are written as SMILES. “And” between values parts separate entries of the source, which are not always exact repeats. Identical values can stand only once. Inconclusive results and toxic doses are left out.

For `CC(c1ccccc1)N1CCCOP1(=O)N(CCCl)CCCl` (stereo not given), the T/C is, setting by setting: (endpoint: mean survival time, dose: 6.25 mg/kg/injection, schedule: Q01DX009 (ip), vehicle: other) 103 % of control; (endpoint: mean survival time, dose: 12.5 mg/kg/injection, schedule: Q01DX009 (ip), vehicle: other) 103 % of control and 94 % of control; (endpoint: mean survival time, dose: 25.0 mg/kg/injection, schedule: Q01DX009 (ip), vehicle: other) 98 % of control and 94 % of control; (endpoint: mean survival time, dose: 31.3 mg/kg/injection, schedule: Q01DX001 (ip), vehicle: other) 98 % of control and 112 % of control and 103 % of control; (endpoint: mean survival time, dose: 31.3 mg/kg/injection, schedule: Q01DX001 (ip), vehicle: saline + alcohol) 101 % of control; (endpoint: mean survival time, dose: 50.0 mg/kg/injection, schedule: Q01DX009 (ip), vehicle: other) 109 % of control and 94 % of control. Also, the T/C is 98 % of control and 100 % of control and 103 % of control (endpoint: mean survival time, dose: 62.5 mg/kg/injection, schedule: Q01DX001 (ip), vehicle: other); 94 % of control (endpoint: mean survival time, dose: 62.5 mg/kg/injection, schedule: Q01DX001 (ip), vehicle: saline + alcohol); 115 % of control and 96 % of control (endpoint: mean survival time, dose: 100.0 mg/kg/injection, schedule: Q01DX009 (ip), vehicle: other); 113 % of control and 108 % of control and 100 % of control (endpoint: mean survival time, dose: 125.0 mg/kg/injection, schedule: Q01DX001 (ip), vehicle: other); 97 % of control (endpoint: mean survival time, dose: 125.0 mg/kg/injection, schedule: Q01DX001 (ip), vehicle: saline + alcohol); 100 % of control (endpoint: mean survival time, dose: 200.0 mg/kg/injection, schedule: Q01DX009 (ip), vehicle: other). For the same molecule, the T/C (endpoint: mean survival time, dose: 250.0 mg/kg/injection, schedule: Q01DX001 (ip), vehicle: other) was 107 % of control and 100 % of control and 103 % of control; the T/C (endpoint: mean survival time, dose: 250.0 mg/kg/injection, schedule: Q01DX001 (ip), vehicle: saline + alcohol) is 97 % of control; the T/C (endpoint: mean survival time, dose: 500.0 mg/kg/injection, schedule: Q01DX001 (ip), vehicle: other) is 100 % of control and 103 % of control; the T/C (endpoint: mean survival time, dose: 500.0 mg/kg/injection, schedule: Q01DX001 (ip), vehicle: saline + alcohol) was 91 % of control.
For `CC(C)(C)c1cc2c3c(c1)Oc1cc(C(C)(C)C)cc4c1C3(O)c1c(cc(C(C)(C)C)cc1O4)O2`, the T/C (endpoint: median survival time, dose: 3.12 mg/kg/injection, schedule: Q01DX009 (ip), vehicle: Klucel (hydroxypropylcellulose) (HPC)) was 107 % of control; the T/C (endpoint: median survival time, dose: 6.25 mg/kg/injection, schedule: Q01DX009 (ip), vehicle: Klucel (hydroxypropylcellulose) (HPC)) is 112 % of control; the T/C (endpoint: median survival time, dose: 12.5 mg/kg/injection, schedule: Q01DX009 (ip), vehicle: Klucel (hydroxypropylcellulose) (HPC)) was 104 % of control.
On to `O=C1C=CC(=O)N1c1ccc(Cl)cc1[N+](=O)[O-]`, for which the T/C runs as follows: (endpoint: mean survival time, dose: 6.25 mg/kg/injection, schedule: Q04DX003 (ip), vehicle: saline with Tween-80) 98 % of control; (endpoint: mean survival time, dose: 12.5 mg/kg/injection, schedule: Q01DX009 (ip), vehicle: saline with Tween-80) 97 % of control; (endpoint: mean survival time, dose: 12.5 mg/kg/injection, schedule: Q04DX003 (ip), vehicle: saline with Tween-80) 101 % of control; (endpoint: mean survival time, dose: 25.0 mg/kg/injection, schedule: Q01DX009 (ip), vehicle: saline with Tween-80) 96 % of control; (endpoint: mean survival time, dose: 25.0 mg/kg/injection, schedule: Q04DX003 (ip), vehicle: saline with Tween-80) 98 % of control.
With `CC(C)S(=O)(=O)/C(Cl)=C(/Cl)C(Cl)=C(Cl)Cl`, for the setting “endpoint: mean survival time, dose: 50.0 mg/kg/injection, schedule: Q01DX009 (ip), vehicle: saline with Tween-80”, the T/C was 106 % of control.
As for `CCc1ncc(C(O)c2ccc(Cl)cc2)n1Cc1ccccc1` (stereo not given), the T/C under setting [1] is 92 % of control, the T/C under setting [2] was 95 % of control and the T/C under setting [3] was 92 % of control.
`O=C(NO)c1ccccc1`: the T/C was 96 % of control under setting [4]; 94 % of control under setting [5]; 110 % of control (endpoint: mean survival time, dose: 100.0 mg/kg/injection, schedule: Q01DX001 (ip), vehicle: saline with Tween-80); 103 % of control (endpoint: mean survival time, dose: 100.0 mg/kg/injection, schedule: Q01DX009 (ip), vehicle: saline sonified); 98 % of control and 109 % of control under setting [6]; 98 % of control under setting [7]. In addition, the T/C is 103 % of control (endpoint: mean survival time, dose: 200.0 mg/kg/injection, schedule: Q01DX001 (ip), vehicle: saline with Tween-80); 115 % of control (endpoint: mean survival time, dose: 200.0 mg/kg/injection, schedule: Q01DX009 (ip), vehicle: saline sonified); 121 % of control and 102 % of control under setting [8]; 96 % of control under setting [9]; 117 % of control (endpoint: mean survival time, dose: 400.0 mg/kg/injection, schedule: Q01DX001 (ip), vehicle: saline with Tween-80); 116 % of control under setting [10].
As for `CCOC(=O)NC(=S)Nc1ncn[nH]1`, the T/C by setting is: (endpoint: mean survival time, dose: 25.0 mg/kg/injection, schedule: Q01DX001 (ip), vehicle: carboxymethylcellulose (CMC)) 102 % of control; (endpoint: mean survival time, dose: 50.0 mg/kg/injection, schedule: Q01DX001 (ip), vehicle: carboxymethylcellulose (CMC)) 97 % of control; (endpoint: mean survival time, dose: 100.0 mg/kg/injection, schedule: Q01DX001 (ip), vehicle: carboxymethylcellulose (CMC)) 97 % of control; (endpoint: mean survival time, dose: 200.0 mg/kg/injection, schedule: Q01DX001 (ip), vehicle: carboxymethylcellulose (CMC)) 93 % of control.
Take `CO[C@@]12[C@@H]3N[C@@H]3CN1C1=C(C(=O)C(Nc3nc(C)c(C)s3)=C(C)C1=O)[C@@H]2COC(N)=O`: the T/C runs as follows: (endpoint: median survival time, dose: 1.5 mg/kg/injection, schedule: Q01DX001 (ip), vehicle: distilled water + Tween-80) 98 % of control and 101 % of control; (endpoint: median survival time, dose: 3.0 mg/kg/injection, schedule: Q01DX001 (ip), vehicle: distilled water + Tween-80) 120 % of control and 101 % of control and 102 % of control; (endpoint: median survival time, dose: 6.0 mg/kg/injection, schedule: Q01DX001 (ip), vehicle: distilled water + Tween-80) 123 % of control and 101 % of control (2×); (endpoint: median survival time, dose: 12.0 mg/kg/injection, schedule: Q01DX001 (ip), vehicle: distilled water + Tween-80) 98 % of control and 101 % of control; (endpoint: median survival time, dose: 24.0 mg/kg/injection, schedule: Q01DX001 (ip), vehicle: distilled water + Tween-80) 121 % of control and 102 % of control and 106 % of control.
Consider `O=C(c1ccccc1)c1cn(C2CCCCC2)c(-c2ccccc2)c1NC1CCCCC1`, for which the T/C is 87 % of control under setting [7], 87 % of control under setting [9] and 94 % of control under setting [10].
Regarding `O=CC(CO)OC(C=O)n1ccc(=O)[nH]c1=O` (stereo not given), the T/C is, setting by setting: (endpoint: median survival time, dose: 50.0 mg/kg/injection, schedule: Q04DX003 (ip), vehicle: saline) 116 % of control; (endpoint: median survival time, dose: 200.0 mg/kg/injection, schedule: Q04DX003 (ip), vehicle: saline) 178 % of control; (endpoint: median survival time, dose: 400.0 mg/kg/injection, schedule: Q04DX003 (ip), vehicle: saline) 285 % of control; (endpoint: median survival time, dose: 800.0 mg/kg/injection, schedule: Q04DX003 (ip), vehicle: saline) 261 % of control.
Turning to `O=NN(CCOS(=O)(=O)c1ccc([N+](=O)[O-])cc1)C(=O)NC1CCCCC1`, the T/C runs as follows: (endpoint: mean survival time, dose: 100.0 mg/kg/injection, schedule: Q01DX001 (ip), vehicle: other) 106 % of control; (endpoint: mean survival time, dose: 200.0 mg/kg/injection, schedule: Q01DX001 (ip), vehicle: other) 153 % of control; (endpoint: mean survival time, dose: 400.0 mg/kg/injection, schedule: Q01DX001 (ip), vehicle: other) 472 % of control.
Turning to `CC#CC(=O)O`, under “endpoint: mean survival time, dose: 100.0 mg/kg/injection, schedule: Q04DX002 (ip), vehicle: saline”, the T/C is 98 % of control.
Take `NC(=O)NC1CCCCCCC1`: the T/C by setting is: under setting [1], 102 % of control; under setting [2], 100 % of control; under setting [3], 110 % of control.
Regarding `CC(C)N(CC(=O)O)CC(=O)O`, the T/C is, setting by setting: (endpoint: mean survival time, dose: 100.0 mg/kg/injection, schedule: Q01DX001 (ip), vehicle: saline) 100 % of control; (endpoint: mean survival time, dose: 200.0 mg/kg/injection, schedule: Q01DX001 (ip), vehicle: saline) 100 % of control.
For the molecule `NC(CSC1(c2cccc3ccccc23)c2ccccc2-c2ccccc21)C(=O)O` (stereo not given), the T/C runs as follows: under setting [4], 94 % of control; under setting [5], 96 % of control; under setting [6], 96 % of control; under setting [8], 94 % of control; (endpoint: mean survival time, dose: 400.0 mg/kg/injection, schedule: Q01DX009 (ip), vehicle: saline) 94 % of control.
